This passage reports IC50 results from patent US7655633B2, “Nitrogen-containing heterocyclic derivatives, medicinal compositions containing the same and medicinal use thereof” (Kissei Pharmaceutical Co., Ltd., priority 2002, dated 2010).

The structures appear in SMILES notation.

The target of this experiment is T1, human SGLT2 (Homo sapiens, UniProt P31639).
T1 construct: expressed in transfected cells
T1 sequence (P31639 1-672): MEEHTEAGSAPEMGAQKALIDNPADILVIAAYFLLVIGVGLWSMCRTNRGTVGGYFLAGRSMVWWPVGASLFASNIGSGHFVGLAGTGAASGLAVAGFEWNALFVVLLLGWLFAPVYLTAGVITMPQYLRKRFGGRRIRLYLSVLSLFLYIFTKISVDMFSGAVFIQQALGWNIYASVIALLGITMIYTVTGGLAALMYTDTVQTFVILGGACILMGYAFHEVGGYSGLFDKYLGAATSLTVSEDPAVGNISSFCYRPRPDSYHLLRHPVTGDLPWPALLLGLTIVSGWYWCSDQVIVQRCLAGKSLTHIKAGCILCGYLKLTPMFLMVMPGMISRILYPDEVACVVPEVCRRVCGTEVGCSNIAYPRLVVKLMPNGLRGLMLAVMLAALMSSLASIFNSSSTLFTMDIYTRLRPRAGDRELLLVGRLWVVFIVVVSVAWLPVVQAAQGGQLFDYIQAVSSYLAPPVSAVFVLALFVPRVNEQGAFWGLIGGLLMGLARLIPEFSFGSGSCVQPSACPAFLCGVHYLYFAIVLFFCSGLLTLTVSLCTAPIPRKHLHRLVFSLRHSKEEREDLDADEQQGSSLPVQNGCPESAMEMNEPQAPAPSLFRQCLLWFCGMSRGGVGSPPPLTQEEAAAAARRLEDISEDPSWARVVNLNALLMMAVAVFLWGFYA
Nature of the experiment: Assay for inhibitory effects on human SGLT2 activity (uptake of methyl-α-D-glucopyranoside in CS2-5E cells). The experiment is classed as cell-based. The settings on record: inhibition of 14C-labeled α-MG (1 mM) uptake, CHO-K1 cells stably expressing human SGLT2 (CS2-5E), 37° C., 1 hour. As for the experimental part: Assay for Inhibitory Effects on Human SGLT2 Activity
1) Cloning and Construction of the Vector Expressing Human SGLT2
The cDNA library was prepared for PCR amplification by reverse transcription from total RNA deprived from human kidney (Ori gene) using oligo-dT as a primer. Using this cDNA library as a template, the base sequence coding 2 to 2039 bp of human SGLT2 (ACCESSION: M95549, M95299), which was reported by R. G. Wells et al., was amplified by PCR method and inserted into the multi-cloning site of pcDNA3.1(−) (Invitrogen). The DNA sequence inserted was perfectly matched to the previously reported sequence.
2) Establishment of Cell Line Stably Expressing Human SGLT2
The expression vector of human SGLT2 was digested by Sca I into a linear DNA. The linear DNA was transfected into CHO-K1 cells by means of lipofection (Effectene Transfection Reagent: QIAGEN). Neomycin resistant cell lines were obtained by culture in the medium containing 1 mg/mL of G418 (LIFE TECHNOLOGIES), and then the activity against the uptake of methyl-α-D-gluco-pyranoside was measured by the method described below. […] Afterward, CS2-5E cells were cultured in the presence of G418 at 200 μg/mL. […]
CS2-5E cells were seeded into a 96-well culture plate at a density of 3×10^4 cells/well and cultured for 2 days, and were used in the uptake assay. […] Radioactivity was measured by means of scintillation counter (Packard). […]

For orientation: IC50 means the concentration needed to halve the response being measured. A lower IC50 goes with higher potency. The compound `Cc1cc(C)c(Cc2ccc(C)c(F)c2)c(O[C@@H]2O[C@H](CO)[C@@H](O)[C@H](O)[C@H]2O)n1` [Example 1, 2-(β-D-Glucopyranosyloxy)-3-(3-fluoro-4-methylbenzyl)-4,6-dimethylpyridine] registered an IC50 of 3 nM.
